Several values for one entry are separate records, joined by “and”; a condition that tells them apart may be missing. Equal entries are not always repeated. Where two headings read alike, the source gives them in different places.
How the values were obtained:
sciatic nerve [1] = conditions: 0.1-0.3 mL of 0.25%-0.5% (8.7-17 mM) bupivacaine (Kohane 1998, 1999); cited from earlier work
sciatic nerve [2] = conditions: for % Animals with Effective Block / Duration of Sensory Block: Bupivacaine 1.4 mM with the EC50eff of each CPE, listed as '—' = bupivacaine alone; for Duration of Sensory Block: median; for TTX block duration compared to TTX alone: 30 μM TTX with CPE at the concentration giving maximum percentage of block, p<0.001; for Maximum Block Duration (MBD, minutes): CPE co-injected with 30 μM TTX, 0.3 mL at sciatic nerve, median (25th-75th percentiles); for ECMBD: CPE concentration that caused the maximum prolongation of block from 30 μM TTX; for CPE Concentration: lowest CPE concentration needed to achieve the highest percentage of animals with block, with 30 μM TTX; for EC50: read-out: EC50eff
C2C12 myotubes = conditions: for % Survival: C2C12 myotubes, 2-hour exposure to each CPE at its EC50eff, head 'TTX 30 μm with:', mean ± SD, from FIG. 2
[3] = test system: sciatic nerves and surrounding muscle
sciatic nerve [4] = experiment: animal or person; conditions: Rattus norvegicus, read-out: EC50eff (mM)
sciatic nerve [5] = assay type: in vivo, Sprague-Dawley rats
[6] = EC50eff of each enhancer without TTX, four days after injection, 4 animals per group
[7] = 30 μM TTX with CPE, effective if latency >7 seconds at any point, listed as '—' = TTX alone

Compound | % Animals with Effective Block (sciatic nerve [2]) | Duration of Sensory Block (sciatic nerve [2]) | % Survival (C2C12 myotubes) | histology: muscle and nerve injury [3, 6] | TTX block duration compared to TTX alone (sciatic nerve [2]) | Highest % Animals with Effective Block (sciatic nerve [2]; [7]) | Maximum Block Duration (MBD, minutes) (sciatic nerve [2]; listed as '—' = TTX alone) | ECMBD (sciatic nerve [2]) | CPE Concentration (sciatic nerve [2]) | EC100 min (sciatic nerve [2]; rat, in vivo) | EC50 (sciatic nerve [4]) | further results
CCCCN1CCCCC1C(=O)Nc1c(C)cccc1C (stereo not drawn) [Bupivacaine, bupivacaine, reference compound] | 42% | 0 min | – | – | – | – | – | – | – | – | – | successful blocks (sciatic nerve [1]): > 99%
CCCCCCCCCCCC[N+](C)(C)C.[Br-] [DDAB, Dodecyl-trimethyl-ammonium Bromide] | 0% | 0 min | 5 ± 0.2% | moderate to severe infiltration of macrophages and lymphocytes, atrophy and degeneration of muscle fibers, and fibrosis of the tissue | significantly improved TTX block duration | 100% | 606 (452-788) minutes | 8 mM | 6 mM | 1 mM | 6 mM | histology: tissue damage ([3]; 3% (97.3 mM) DDAB, two animals): deep and severe tissue damage, including ischemic necrosis, accompanied by severe and extensive inflammation; histology: muscle and nerve injury ([3]; EC50eff of the enhancers together with 30 μm TTX): severe lymphocytic inflammatory infiltration of muscle with degenerative changes, regenerative changes, and fibrosis; resolution of nerve block (sciatic nerve [2]; 30 μM TTX in 32 mM DDAB): none of those rats' nerve blocks resolved; nerve blockade by CPE alone (sciatic nerve [2]; 32 mM DDAB alone, without TTX, the exception to 'CPE alone did not cause nerve blockade'): with one exception
CCCCCCCC[N+](C)(C)C.[Br-] [OTAB, Octyl-trimethyl-ammonium Bromide] | 0% | 0 min | 53 ± 2% | no significant muscle or nerve injury | significantly improved TTX block duration | 100% | 353 (327-361) minutes | 119 mM | 40 mM | 31 mM | 30 mM | –
Cc1cccc(C)c1NC(=O)C[N+](C)(C)C [QX-222, 2-((2,6-dimethylphenyl)amino)-N,N,N-trimethyl-2-oxoethanaminium] | – | – | – | – | – | – | – | – | – | – | – | thermal nociceptive and motor blockade of the combination with TTX (sciatic nerve [5]; 25 and 70 mM QX-314 or 70 and 100 mM QX-222 with 30, 40 or 50 μM TTX, FIGS. 5A and B): increased blockade significantly more than the mere cumulative value of the anesthetics alone
CC[N+](CC)(CC)CC(=O)Nc1c(C)cccc1C [QX-314, N-(2,6)dimethylphenylcarbamoylmethyl triethylammonium bromide] | – | – | – | – | – | – | – | – | – | – | – | thermal nociceptive and motor blockade of the combination with TTX (sciatic nerve [5]; rat, in vivo): increased blockade significantly more than the mere cumulative value of the anesthetics alone
CCCCCCCCCCCCOS(=O)(=O)[O-].[Na+] [SLS, Sodium Dodecyl Sulfate] | 50% | 22 min | 17 ± 11% | no significant muscle or nerve injury | significantly improved TTX block duration | 88% | – | 35 mM | 17 mM | – | 4 mM | EC100 min (sciatic nerve [2]; interpolated concentration of CPE that increased block duration of 30 μM TTX to 100 min): 3 mM
CCCCCCCCOS(=O)(=O)[O-].[Na+] [SOS, Sodium Octyl Sulfate] | 25% | 0 min | 5 ± 3% | no significant muscle or nerve injury | significantly improved TTX block duration | 100% | 521 (361-669) minutes | 86 mM | 32 mM | 22 mM | 32 mM | –
NC1=N[C@H](O)[C@H]2[C@H]3O[C@]4(O)O[C@@H]([C@@H](O)[C@@]2(N1)[C@@H]4O)[C@]3(O)CO [TTX, tetrodotoxin, reference compound] | – | – | – | – | – | – | – | – | – | – | – | % of animals with sensory blockade (effective nerve block) (sciatic nerve [2]; rat, in vivo): 29% and 29.2%; Highest % Animals with Effective Block (sciatic nerve [2]; rat, in vivo): 29%
polysorbate 20 [TW 20] | 25% | 0 min | 94 ± 3% | no significant muscle or nerve injury | significantly improved TTX block duration | 100% | 163 (129-206) minutes | 49 mM | 4 mM | 4 mM | – | C2C12 viability after longer exposure (C2C12 myotubes; CPE at EC50eff, 8-hour exposure / increasing duration of exposure (data not shown)): remained at untreated-control levels; histology: muscle and nerve injury ([3]; Tween 20 at 24.4 and 81.4 mM): progressively worsening (mild to moderate) muscle atrophy and inflammation; EC50 (sciatic nerve [2]; CPE concentration causing half-maximal increase in duration of block (half-MBD) of 30 μM TTX): 3 mM
polysorbate 80 [TW 80] | 0% | 0 min | 80 ± 8% | no significant muscle or nerve injury | significantly improved TTX block duration | 100% | 120 (111-143) minutes | 81 mM | 81 mM | 40 mM | – | EC50 (sciatic nerve [2]; rat, in vivo): 34 mM
